pIC50: −log10 of the molar value.
Key:
[1] = system: H460; assay: Cellular H460 viability assay (CellTiter-Glo, 72 hours); type: cell-based; conditions: Homo sapiens, NCI-H460
In short: (§1)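 Luminescent ATP read-out (CellTiter-Glo) after 72 h compound exposure at 37 °C/5% CO2; duplicate wells; vehicle control DMSO <0.1% final; seeding density set per cell line.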

[2] = system: HCT116; assay: Cellular HCT116 viability assay (CellTiter-Glo, 72 hours); type: cell-based; conditions: Homo sapiens, HCT-116
In short: as §1

[3] = target: T1, CDK5/p25 (Homo sapiens, UniProt Q00535); assay: Enzymatic assay for CDK5 (FRET based LANCE Ultra kinase assay); type: biochemical; conditions: read-out: CDK5 enzymatic activity (IC50 range)
T1 construct: purchased Invitrogen PR8543B
T1 sequence (Q00535 whole entry): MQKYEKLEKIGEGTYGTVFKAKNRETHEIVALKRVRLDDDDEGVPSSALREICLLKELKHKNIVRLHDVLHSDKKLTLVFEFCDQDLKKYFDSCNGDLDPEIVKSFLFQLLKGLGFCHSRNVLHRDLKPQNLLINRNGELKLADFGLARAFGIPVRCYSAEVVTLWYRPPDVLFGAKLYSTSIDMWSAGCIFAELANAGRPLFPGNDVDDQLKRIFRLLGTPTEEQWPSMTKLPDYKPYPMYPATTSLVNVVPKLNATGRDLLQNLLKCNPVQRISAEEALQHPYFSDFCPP
T1 sequence (Q15078 99-307 partner limits assumed): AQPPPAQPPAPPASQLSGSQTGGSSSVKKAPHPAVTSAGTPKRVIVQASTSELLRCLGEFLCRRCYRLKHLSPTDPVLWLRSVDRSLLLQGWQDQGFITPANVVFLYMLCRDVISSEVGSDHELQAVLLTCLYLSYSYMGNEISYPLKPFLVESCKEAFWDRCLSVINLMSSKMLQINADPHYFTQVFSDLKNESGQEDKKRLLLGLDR
In short: (§2)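 Each CDK complex ([…]) phosphorylated 68 nM ULight-MBP peptide with ATP at Km for 60 min at 23° C., against 8 compound doses (4-fold dilutions). EDTA/Eu-anti-phospho-MBP detection, 60 min, then TR-FRET emission at 615 and 665 nm.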

[4] = target: T2, CDK1/Cyclin B (Homo sapiens, UniProt P06493); assay: Enzymatic assay for CDK1 (FRET based LANCE Ultra kinase assay); type: biochemical; conditions: read-out: CDK1 enzymatic activity (IC50 range)
T2 construct: purchased Invitrogen PR4768C
T2 sequence (P06493 whole entry): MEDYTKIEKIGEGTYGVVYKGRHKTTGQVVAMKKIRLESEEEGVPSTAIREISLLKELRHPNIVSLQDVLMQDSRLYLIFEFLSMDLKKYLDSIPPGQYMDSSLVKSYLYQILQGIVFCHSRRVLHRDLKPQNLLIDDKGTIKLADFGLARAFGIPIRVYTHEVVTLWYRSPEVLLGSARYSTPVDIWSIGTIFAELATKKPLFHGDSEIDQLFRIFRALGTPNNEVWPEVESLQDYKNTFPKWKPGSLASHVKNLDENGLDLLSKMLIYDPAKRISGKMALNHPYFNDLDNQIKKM
T2 sequence (P14635 whole entry partner): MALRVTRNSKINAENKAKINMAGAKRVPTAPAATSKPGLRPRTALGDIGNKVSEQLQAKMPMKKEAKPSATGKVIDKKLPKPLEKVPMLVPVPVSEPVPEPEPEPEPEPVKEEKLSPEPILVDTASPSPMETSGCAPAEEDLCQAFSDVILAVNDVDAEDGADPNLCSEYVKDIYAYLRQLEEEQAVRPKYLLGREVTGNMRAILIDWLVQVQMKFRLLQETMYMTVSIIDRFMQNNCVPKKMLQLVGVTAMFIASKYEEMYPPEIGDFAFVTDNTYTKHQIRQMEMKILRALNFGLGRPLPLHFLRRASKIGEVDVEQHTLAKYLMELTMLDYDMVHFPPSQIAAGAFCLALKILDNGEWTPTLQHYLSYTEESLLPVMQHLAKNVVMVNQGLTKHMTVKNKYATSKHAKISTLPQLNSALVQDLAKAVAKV
In short: as §2

[5] = target: T3, CDK2/Cyclin A (Homo sapiens, UniProt P24941); assay: Enzymatic assay for CDK2 (FRET based LANCE Ultra kinase assay); type: biochemical; conditions: read-out: CDK2 enzymatic activity (IC50 range)
T3 construct: purchased Invitrogen PV6290
In short: as §2

[6] = system: MV4-11; assay: Cellular MV4-11 viability assay (CellTiter-Glo, 72 hours); type: cell-based; conditions: Homo sapiens
In short: as §1

[7] = target: T4, CDK7/Cyclin H/MNAT1 (Homo sapiens, UniProt P50613); assay: Enzymatic assay for CDK7 (FRET based LANCE Ultra kinase assay); type: biochemical; conditions: for pIC50: read-out: CDK7 enzymatic activity (IC50 range)
T4 construct: purchased Invitrogen PR6749B
T4 sequence (P50613 whole entry): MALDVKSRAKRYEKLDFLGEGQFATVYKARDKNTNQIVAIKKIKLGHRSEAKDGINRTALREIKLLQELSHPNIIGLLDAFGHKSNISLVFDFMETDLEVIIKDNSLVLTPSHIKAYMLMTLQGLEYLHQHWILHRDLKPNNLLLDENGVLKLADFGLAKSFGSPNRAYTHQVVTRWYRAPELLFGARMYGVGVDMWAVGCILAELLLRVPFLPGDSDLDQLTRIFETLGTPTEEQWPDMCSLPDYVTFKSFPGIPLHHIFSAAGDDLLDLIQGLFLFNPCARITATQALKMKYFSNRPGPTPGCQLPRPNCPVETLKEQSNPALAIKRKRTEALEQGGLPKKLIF
T4 sequence (P51946 whole entry partner): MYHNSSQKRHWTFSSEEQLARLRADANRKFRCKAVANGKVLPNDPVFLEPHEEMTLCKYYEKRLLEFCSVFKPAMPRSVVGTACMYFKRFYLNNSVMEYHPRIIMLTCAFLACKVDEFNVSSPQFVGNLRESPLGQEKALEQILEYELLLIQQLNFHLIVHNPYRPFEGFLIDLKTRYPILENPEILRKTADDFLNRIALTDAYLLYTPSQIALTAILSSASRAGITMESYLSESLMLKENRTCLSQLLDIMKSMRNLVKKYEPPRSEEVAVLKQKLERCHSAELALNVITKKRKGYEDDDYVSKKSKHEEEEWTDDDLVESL
T4 sequence (P51948 whole entry partner): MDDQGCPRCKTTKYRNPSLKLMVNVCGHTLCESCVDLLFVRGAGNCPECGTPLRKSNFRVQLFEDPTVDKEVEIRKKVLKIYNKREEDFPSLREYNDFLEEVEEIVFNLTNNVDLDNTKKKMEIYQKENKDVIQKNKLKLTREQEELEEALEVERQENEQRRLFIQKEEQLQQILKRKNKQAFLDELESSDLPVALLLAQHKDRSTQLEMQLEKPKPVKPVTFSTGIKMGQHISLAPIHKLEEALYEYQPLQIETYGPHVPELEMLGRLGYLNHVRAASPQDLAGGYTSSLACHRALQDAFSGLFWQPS
In short: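 Inhibition was measured at Km ATP by time-resolved FRET between a Eu anti-phospho antibody and a phosphorylated ULight peptide. The enzyme was the purified CDK7/cyclin complex, and data were curve-fitted.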

[8] = system: RPMI-8226; assay: Cellular RPMI-8226 viability assay (CellTiter-Glo, 72 hours); type: cell-based; conditions: Homo sapiens
Experimental: All cell lines were routinely tested for mycoplasma.
The effect of the CDK7 inhibitor to inhibit the growth of target cancer cells was evaluated through the 72 hours time period of viability assay. Briefly, the candidate cell line ware plated in 96 well plate at the following density of cells respectively. […] DMSO solvent without compound served as a control and final DMSO concentration less than 0.1%. After 72 hours of incubation at 37° C., 5% CO2 incubator, cells were analyzed for the viability using the CellTiter-Glo Luminescent Cell Viability Assay (Promega, Cat #G7570). All viability assays were performed in duplicate and Luminescence was read using an Envision (Perkin Elmer, USA). Data was analyzed using XLfit software.

[9] = system: MOLT-4; assay: Cellular MOLT-4 viability assay (CellTiter-Glo, 72 hours); type: cell-based; conditions: Homo sapiens, MOLT4 viability assay
In short: as §1

SMILES | pIC50 [1] | pIC50 [2] | pIC50 [3] | pIC50 [4] | pIC50 [5] | pIC50 [6] | CDK1/CDK7: Selectivity of CDK7 inhibition over CDK1 inhibition [7] | CDK2/CDK7: Selectivity of CDK7 inhibition over CDK2 inhibition [7] | CDK5/CDK7: Selectivity of CDK7 inhibition over CDK5 inhibition [7] | pIC50 [7] | pIC50 [8] | pIC50 [9]
CC(C)c1cnn2c(NCc3ccccc3-n3cc4c(n3)CCOC4)nc(N3CCC(N)CC3)nc12 [Compound 133] | > 6.00 | > 6.00 | 6.00 to 7.00 | < 6.00 | 6.00 to 7.00 | > 6.00 | A (A=greater than 200 fold) | B (B=less than 200 fold, but greater than 20 fold) | B (B=less than 200 fold, but greater than 20 fold) | > 7.00 | > 6.00 | –
CC(C)c1cnn2c(NCc3ccccc3-c3cc4ccccc4[nH]3)nc(NC3CCOCC3)nc12 [Compound 114] | – | – | < 6.00 | < 6.00 | < 6.00 | – | A (A=greater than 200 fold) | B (B=less than 200 fold, but greater than 20 fold) | B (B=less than 200 fold, but greater than 20 fold) | 6.00 to 7.00 | 5.00 to 6.00 | 5.00 to 6.00
CC(C)c1cnn2c(NCc3ccccc3-c3cn4ccc(F)cc4n3)nc(N3CCC(N)CC3)nc12 [Compound 124] | > 6.00 | > 6.00 | > 7.00 | 6.00 to 7.00 | 6.00 to 7.00 | > 6.00 | B (B=less than 200 fold, but greater than 20 fold) | B (B=less than 200 fold, but greater than 20 fold) | C (C=less than 20 fold) | > 7.00 | > 6.00 | –
CC(=O)NC1CCN(c2nc(NCc3ccccc3-c3cc4ccccc4[nH]3)n3ncc(C(C)C)c3n2)CC1 [Compound 111] | – | – | < 6.00 | < 6.00 | < 6.00 | – | B (B=less than 200 fold, but greater than 20 fold) | B (B=less than 200 fold, but greater than 20 fold) | C (C=less than 20 fold) | > 7.00 | 5.00 to 6.00 | 5.00 to 6.00
CC(C)c1cnn2c(NCc3c(Cl)cccc3-c3ccc4[nH]cnc4c3)nc(N3CCC(N)CC3)nc12 [Compound 136] | 5.00 to 6.00 | > 6.00 | 6.00 to 7.00 | < 6.00 | < 6.00 | > 6.00 | A (A=greater than 200 fold) | A (A=greater than 200 fold) | B (B=less than 200 fold, but greater than 20 fold) | > 7.00 | 5.00 to 6.00 | –
CC(C)CC(=O)Nc1cccc2cc(-c3ccccc3CNc3nc(N4CCC(N)CC4)nc4c(C(C)C)cnn34)[nH]c12 [Compound 145] | > 6.00 | > 6.00 | > 7.00 | 6.00 to 7.00 | 6.00 to 7.00 | > 6.00 | B (B=less than 200 fold, but greater than 20 fold) | B (B=less than 200 fold, but greater than 20 fold) | C (C=less than 20 fold) | > 7.00 | > 6.00 | –
CC(C)c1cnn2c(NCc3ccccc3-n3cc4ccncc4n3)nc(N3CCC(N)CC3)nc12 [Compound 139] | > 6.00 | > 6.00 | 6.00 to 7.00 | < 6.00 | 6.00 to 7.00 | > 6.00 | A (A=greater than 200 fold) | B (B=less than 200 fold, but greater than 20 fold) | B (B=less than 200 fold, but greater than 20 fold) | > 7.00 | > 6.00 | –
CC(C)c1cnn2c(NCc3cccc4ccc(NC(=O)CCCN(C)C)nc34)nc(N3CCC(N)CC3)nc12 [Compound 95] | – | – | 6.00 to 7.00 | < 6.00 | 6.00 to 7.00 | – | A (A=greater than 200 fold) | A (A=greater than 200 fold) | B (B=less than 200 fold, but greater than 20 fold) | > 7.00 | > 6.00 | 5.00 to 6.00
CC(C)c1cnn2c(NCc3ccccc3-n3ncc4ccccc43)nc(N3CCC(N)CC3)nc12 [Compound 58] | – | – | – | – | – | – | – | – | – | – | 5.00 to 6.00 | 5.00 to 6.00
CC(C)c1cnn2c(NCc3ccccc3-c3cn4c(n3)CCCC4)nc(N3CCC(N)CC3)nc12 [Compound 122] | > 6.00 | > 6.00 | 6.00 to 7.00 | < 6.00 | 6.00 to 7.00 | > 6.00 | A (A=greater than 200 fold) | B (B=less than 200 fold, but greater than 20 fold) | B (B=less than 200 fold, but greater than 20 fold) | > 7.00 | > 6.00 | –
CC(C)c1cnn2c(NCc3ccccc3-c3cc4ccccc4[nH]3)nc(N3CCC(C(N)=O)CC3)nc12 [Compound 117] | – | – | < 6.00 | < 6.00 | < 6.00 | – | A (A=greater than 200 fold) | A (A=greater than 200 fold) | B (B=less than 200 fold, but greater than 20 fold) | 6.00 to 7.00 | 5.00 to 6.00 | 5.00 to 6.00
CC(C)c1cnn2c(NCc3ccccc3-n3cc4cc(C(=O)N5CCCC5)ccc4n3)nc(N3CCC(N)CC3)nc12 [Compound 147] | > 6.00 | > 6.00 | 6.00 to 7.00 | < 6.00 | < 6.00 | > 6.00 | A (A=greater than 200 fold) | B (B=less than 200 fold, but greater than 20 fold) | B (B=less than 200 fold, but greater than 20 fold) | > 7.00 | 5.00 to 6.00 | –
CC(C)c1cnn2c(NCc3ccccc3-n3cc4cc(C(N)=O)ccc4n3)nc(N3CCC(N)CC3)nc12 [Compound 146] | > 6.00 | > 6.00 | 6.00 to 7.00 | 6.00 to 7.00 | 6.00 to 7.00 | > 6.00 | A (A=greater than 200 fold) | A (A=greater than 200 fold) | B (B=less than 200 fold, but greater than 20 fold) | > 7.00 | > 6.00 | –

From patent US11945822B2, “Pyrazolo-triazine and/or pyrazolo-pxrimidine derivatives as selective inhibitor of cyclin dependent kinase” (QURIENT CO., LTD., priority 2018, dated 2024)
